Experiment [1] has as its system L6-myotubes. In words: Glucose uptake (3H-2-deoxyglucose) in differentiated L6-myotubes, compared to isoproterenol. The class given is cell-based. The settings on record: compound at 10 μM vs isoproterenol at 10 μM, read-out: Biological example 1: glucose uptake activity compared to that of isoproterenol. As for the experimental part: (§1) L6-myoblasts were grown in Dulbecco's Modified Eagle's Medium (DMEM) containing 1 g/L glucose supplemented with 10% fetal bovine serum, 2 mM L-Glutamine, 50 U/mL penicillin, […] streptomycin and 10 mM HEPES. Cells were plated at 1×10^5 cells per mL in 24-well plates. After reaching 90% confluence the cells were grown in medium containing 2% FBS for 7 days where upon cells differentiated into myotubes.
Differentiated L6-myotubes were serum-starved overnight in medium containing 0.5% fatty-acid free BSA and stimulated with an agonist, with a final concentration of 1×10^−5 M. After 1 h 40 min the cells were washed with warm glucose free medium or PBS twice and another portion of agonist was added to the glucose free medium. After 20 min the cells were exposed to 50 nM ^3H-2-deoxyglucose for another 10 min before washed in ice cold glucose free medium or PBS three times and lysed in 400 μL/well 0.2 M NaOH for 1 h at 60° C. The cell lysate was mixed with 4 mL scintillation buffer (Emulsifier Safe, Perkin Elmer) and the radioactivity was detected in a p-counter (Tri-Carb 4810TR, Perkin Elmer). The activity for each compound is compared to that of isoproterenol.

Experiment [2] has as its system L6-myotubes. In words: Measurement of intracellular cAMP levels (alpha screen cAMP kit) in differentiated cells, compared to isoproterenol. The settings on record: 0.25 h, compound at 10 μM vs isoproterenol at 10 μM, 15 min stimulation, read-out: Biological example 2: intracellular cAMP level activity compared to that of isoproterenol. The class given is cell-based. The procedure: as §1
Differentiated cells were serum-starved overnight and stimulated with an agonist, final concentration 1×10^−5 M, for 15 min in stimulation buffer (HBSS supplemented with 1% BSA, 5 mM HEPES and 1 mM IBMX, pH 7.4). The medium was aspirated and 100 μL of 95% EtOH was added to each well of the 24-well plate and cells were kept at −20° C. overnight. The EtOH was allowed to evaporate and 500 μL of lysis buffer (1% BSA, 5 mM HEPES and 0.3% Tween-20, pH 7.4) was added to each well. The plate was kept at −80° C. for 30 min and then at −20° C. until the day of detection when the samples were thawed. Intracellular cAMP levels were detected using an alpha screen cAMP kit (6760635D from Perkin Elmer). The activity for each compound is compared to that of isoproterenol.

Structures can show the parent of a compound that is named as a salt.

As to `CN1CCC[C@@H](CC(C)(C)NC[C@H](O)c2cccc(F)c2)C1` [Example 10, (R)-1-(3-Fluorophenyl)-2-((2-methyl-1-((S)-1-methylpiperidin-3-yl)-propan-2-yl)amino)ethan-1-ol], the Emax at 10 µM in experiment [1] is above 75%; in experiment [2], below 25%.

On to `CC(C)(C[C@@H]1CCCN(C(=O)OC(C)(C)C)C1)NC[C@H](O)c1cncc(F)c1` [Example 11, tert-Butyl (S)-3-(2-(((R)-2-(5-fluoropyridin-3-yl)-2-hydroxyethyl)-amino)-2-methylpropyl)piperidine-1-carboxylate], for which the Emax at 10 µM in experiment [1] and in experiment [2] was above 75% in each case.

As to `CC(C)(C[C@@H]1CCCNC1)NC[C@H](O)c1cncc(F)c1` [Example 12, (R)-1-(5-Fluoropyridin-3-yl)-2-((2-methyl-1-((S)-piperidin-3-yl)-propan-2-yl)amino)ethan-1-ol], the Emax at 10 µM in experiment [1] is above 75%; in experiment [2], below 25%.

`CC(=O)N1CCC[C@@H](CC(C)(C)NC[C@H](O)c2cncc(F)c2)C1` [Example 13, 1-((S)-3-(2-(((R)-2-(5-Fluoropyridin-3-yl)-2-hydroxyethyl)amino)-2-methylpropyl)piperidin-1-yl)ethan-1-one dihydrochloride]: the Emax at 10 µM in experiment [1] is above 75%; in experiment [2], below 25%.

On to `CC(C)(C[C@@H]1CCCN(S(C)(=O)=O)C1)NC[C@H](O)c1cncc(F)c1` [Example 14, (R)-1-(5-Fluoropyridin-3-yl)-2-((2-methyl-1-((S)-1-(methylsulfonyl)-piperidin-3-yl)propan-2-yl)amino)ethan-1-ol hydrochloride], for which the Emax at 10 µM was 50 to 75% in experiment [1] and below 25% in experiment [2].

As to `CC(C)(C[C@@H]1CCCN(C(=O)C(C)(C)C)C1)NC[C@H](O)c1cncc(F)c1` [Example 15, 1-((S)-3-(2-(((R)-2-(5-Fluoropyridin-3-yl)-2-hydroxyethyl)amino)-2-methylpropyl)piperidin-1-yl)-2,2-dimethylpropan-1-one], the Emax at 10 µM was above 75% in experiment [1] and below 25% in experiment [2].

`CC(C)(C[C@@H]1CCCN(C(=O)C(F)(F)F)C1)NC[C@H](O)c1cncc(F)c1` [Example 16, 2,2,2-Trifluoro-1-((S)-3-(2-(((R)-2-(5-fluoropyridin-3-yl)-2-hydroxy-ethyl)amino)-2-methylpropyl)piperidin-1-yl)ethan-1-one]: the Emax at 10 µM in experiment [1] was above 75%; in experiment [2], below 25%.

As to `COC(=O)N1CCC[C@@H](CC(C)(C)NC[C@H](O)c2cncc(F)c2)C1` [Example 17, Methyl (S)-3-(2-(((R)-2-(5-fluoropyridin-3-yl)-2-hydroxyethyl)amino)-2-methylpropyl)piperidine-1-carboxylate dihydrochloride], the Emax at 10 µM in experiment [1] and in experiment [2] was above 75% each time.

In the case of `CN(C)C(=O)N1CCC[C@@H](CC(C)(C)NC[C@H](O)c2cncc(F)c2)C1` [Example 18, (S)-3-(2-(((R)-2-(5-Fluoropyridin-3-yl)-2-hydroxyethyl)amino)-2-methylpropyl)-N,N-dimethylpiperidine-1-carboxamide dihydrochloride], the Emax at 10 µM in experiment [1] was above 75%; in experiment [2], below 25%.

Consider `CNC(=O)N1CCC[C@@H](CC(C)(C)NC[C@H](O)c2cncc(F)c2)C1` [Example 19, (S)-3-(2-(((R)-2-(5-Fluoropyridin-3-yl)-2-hydroxyethyl)amino)-2-methylpropyl)-N-methylpiperidine-1-carboxamide dihydrochloride], for which the Emax at 10 µM in experiment [1] was above 75%; in experiment [2] it was 50 to 75%.

On to `CC(C)(C[C@@H]1CCCN(C(=O)OC(C)(C)C)C1)NC[C@H](O)c1cccc(C(F)(F)F)n1` [Example 20, tert-Butyl (S)-3-(2-(((S)-2-hydroxy-2-(6-(trifluoromethyl)pyridin-2-yl)-ethyl)amino)-2-methylpropyl)piperidine-1-carboxylate], for which the Emax at 10 µM was above 75% in experiment [1] and below 25% in experiment [2].

For `CC(C)(C[C@@H]1CCCNC1)NC[C@H](O)c1cccc(C(F)(F)F)n1` [Example 21, (S)-2-((2-Methyl-1-((S)-piperidin-3-yl)propan-2-yl)amino)-1-(6-(trifluoromethyl)pyridin-2-yl)ethan-1-ol], the Emax at 10 µM was 50 to 75% in experiment [1] and below 25% in experiment [2].

As for `CC(=O)N1CCC[C@@H](CC(C)(C)NC[C@H](O)c2cccc(C(F)(F)F)n2)C1` [Example 22, 1-((S)-3-(2-(((S)-2-Hydroxy-2-(6-(trifluoromethyl)pyridin-2-yl)ethyl)-amino)-2-methylpropyl)piperidin-1-yl)ethan-1-one dihydrochloride], the Emax at 10 µM in experiment [1] is above 75%; in experiment [2], below 25%.

In the case of `CC(C)(C[C@@H]1CCCN(S(C)(=O)=O)C1)NC[C@H](O)c1cccc(C(F)(F)F)n1` [Example 23, (S)-2-((2-Methyl-1-((S)-1-(methylsulfonyl)piperidin-3-yl)propan-2-yl)-amino)-1-(6-(trifluoromethyl)pyridin-2-yl)ethan-1-ol dihydrochloride], the Emax at 10 µM in experiment [1] was 50 to 75%; in experiment [2], below 25%.

As to `CC(C)(C[C@H]1CCCN(S(C)(=O)=O)C1)NC[C@H](O)c1cccc(F)c1` [Example 25, (R)-1-(3-Fluorophenyl)-2-((2-methyl-1-((R)-1-(methylsulfonyl)-piperidin-3-yl)propan-2-yl)amino)ethan-1-ol hydrochloride], the Emax at 10 µM in experiment [1] is 25 to 50%; in experiment [2], below 25%.

For `CC(=O)N1CCC[C@H](CC(C)(C)NC[C@H](O)c2cncc(F)c2)C1` [Example 26, 1-((R)-3-(2-(((R)-2-(5-Fluoropyridin-3-yl)-2-hydroxyethyl)amino)-2-methylpropyl)piperidin-1-yl)ethan-1-one dihydrochloride], the Emax at 10 µM is 50 to 75% in experiment [1] and below 25% in experiment [2].

`CC(C)(C[C@H]1CCCN(S(C)(=O)=O)C1)NC[C@H](O)c1cncc(F)c1` [Example 27, (R)-1-(5-Fluoropyridin-3-yl)-2-((2-methyl-1-((R)-1-(methylsulfonyl)-piperidin-3-yl)propan-2-yl)amino)ethan-1-ol dihydrochloride]: the Emax at 10 µM in experiment [1] is 50 to 75%; in experiment [2] it was below 25%.

`CC(C)(CC1CCNCC1)NC[C@H](O)c1cccc(F)c1` [Example 29, (R)-1-(3-Fluorophenyl)-2-((2-methyl-1-(piperidin-4-yl)propan-2-yl)-amino)ethan-1-ol]: the values for the Emax at 10 µM in experiment [1] and in experiment [2] were above 75% and below 25%, respectively.

As to `CC(=O)N1CCC(CC(C)(C)NC[C@H](O)c2cccc(F)c2)CC1` [Example 30, (R)-1-(4-(2-((2-(3-Fluorophenyl)-2-hydroxyethyl)amino)-2-methyl-propyl)piperidin-1-yl)ethan-1-one hydrochloride], the Emax at 10 µM in experiment [1] is above 75%; in experiment [2], below 25%.

For `CC(C)(CC1CCN(S(C)(=O)=O)CC1)NC[C@H](O)c1cccc(F)c1` [Example 31, (R)-1-(3-Fluorophenyl)-2-((2-methyl-1-(1-(methylsulfonyl)piperidin-4-yl)propan-2-yl)amino)ethan-1-ol hydrochloride], the Emax at 10 µM in experiment [1] is 50 to 75%; in experiment [2] it was below 25%.

Consider `CN1CCC(CC(C)(C)NC[C@H](O)c2cccc(F)c2)CC1` [Example 32, (R)-1-(3-Fluorophenyl)-2-((2-methyl-1-(1-methylpiperidin-4-yl)-propan-2-yl)amino)ethan-1-ol dihydrochloride], for which the Emax at 10 µM is 50 to 75% in experiment [1] and below 25% in experiment [2].

In the case of `CC(C)(CC1CCN(C(=O)OC(C)(C)C)CC1)NC[C@H](O)c1cncc(F)c1` [Example 33, tert-Butyl (R)-4-(2-((2-(5-fluoropyridin-3-yl)-2-hydroxyethyl)amino)-2-methylpropyl)piperidine-1-carboxylate], the figures for the Emax at 10 µM in experiment [1] and in experiment [2] were above 75% and below 25%, respectively.

With `CC(=O)N1CCC(CC(C)(C)NC[C@H](O)c2cncc(F)c2)CC1` [Example 34, (R)-1-(4-(2-((2-(5-fluoropyridin-3-yl)-2-hydroxyethyl)amino)-2-methylpropyl)piperidin-1-yl)ethan-1-one dihydrochloride], the Emax at 10 µM in experiment [1] is 50 to 75%; in experiment [2], below 25%.

In the case of `CC(C)(CC1CCN(S(C)(=O)=O)CC1)NC[C@H](O)c1cncc(F)c1` [Example 35, (R)-1-(5-Fluoropyridin-3-yl)-2-((2-methyl-1-(1-(methylsulfonyl)-piperidin-4-yl)propan-2-yl)amino)ethan-1-ol dihydrochloride], the Emax at 10 µM in experiment [1] was 50 to 75%; in experiment [2], below 25%.
